Test results as given in patent US12692232B2, “Indole carboxamide compound, preparation therefor and use thereof” (NANJING RUISHUNING MEDICAL TECHNOLOGY CO., LTD., priority 2021, dated 2026).

Target: T1, TRPC3 protein (Homo sapiens, UniProt Q13507)
T1 sequence (Q13507 1-921): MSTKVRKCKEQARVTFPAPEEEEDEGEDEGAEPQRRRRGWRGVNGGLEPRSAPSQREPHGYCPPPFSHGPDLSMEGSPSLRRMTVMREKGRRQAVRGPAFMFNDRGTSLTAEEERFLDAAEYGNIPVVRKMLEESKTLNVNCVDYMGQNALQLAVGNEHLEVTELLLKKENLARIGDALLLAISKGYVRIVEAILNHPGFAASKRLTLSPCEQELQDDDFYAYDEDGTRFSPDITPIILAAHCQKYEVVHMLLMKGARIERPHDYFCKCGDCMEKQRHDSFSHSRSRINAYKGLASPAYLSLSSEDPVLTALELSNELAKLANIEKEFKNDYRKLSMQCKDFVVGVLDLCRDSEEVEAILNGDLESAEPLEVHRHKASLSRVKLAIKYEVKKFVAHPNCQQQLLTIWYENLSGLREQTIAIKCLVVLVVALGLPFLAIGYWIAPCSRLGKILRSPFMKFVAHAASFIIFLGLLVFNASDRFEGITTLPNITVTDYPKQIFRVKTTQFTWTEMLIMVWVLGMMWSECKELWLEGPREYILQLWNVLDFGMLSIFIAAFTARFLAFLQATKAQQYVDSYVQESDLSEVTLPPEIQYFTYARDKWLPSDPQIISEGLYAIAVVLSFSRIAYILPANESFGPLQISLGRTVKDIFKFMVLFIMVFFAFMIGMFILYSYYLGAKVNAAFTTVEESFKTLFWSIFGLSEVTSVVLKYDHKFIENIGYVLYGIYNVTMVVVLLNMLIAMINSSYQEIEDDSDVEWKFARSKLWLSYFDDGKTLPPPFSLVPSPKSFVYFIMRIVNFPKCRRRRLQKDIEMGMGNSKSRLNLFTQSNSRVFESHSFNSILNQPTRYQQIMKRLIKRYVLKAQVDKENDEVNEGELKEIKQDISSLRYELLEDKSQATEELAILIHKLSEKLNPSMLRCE
Assay: MST binding to TRPC3 protein
Details: for affinity strength to TRPC6 protein higher than to TRPC3 protein: MST Kd ratio
Method: Preparation and labelling of protein solution: TRPC6 protein dry powder (Alomone Labs, Israel) was prepared into a protein mother solution at a concentration of 10 μM using PBS-Buffer, and 35 μL of the protein stock solution was taken to the Buffer exchange A column, and centrifuged to obtain the Tris-removed protein. 34 μL Labelling Buffer was added to the Tris-removed protein according to the instructions of the Protein Fluorescent Labelling Kit (model L001). After mixing well, 3 μL of NT-647-NHS fluorescent dye was added and thus obtained mixture was incubated for 20 minutes. The protein-dye mixture was transferred to the purification B column, 300 μL of PBS-Buffer was added, and the target protein, i.e. fluorescent labelled protein TRPC6, was collected by centrifugation (with a final concentration of about 2 μM). 180 μL of target protein was mixed with 1620 μL of PBS-Buffer, and then 9 μl of Tween-20 were added thereto. Thus the resulting mixture was mixed and then centrifuged to obtain the target protein solution.
Preparation of compound solutions: the compounds were prepared separately with DMSO to storage solutions with a concentration of […]. 10 μL of each storage solution was placed in a […] EP tube, 90 μL of PBS was added thereto and the resulting mixture was thoroughly mixed to prepare 100 μL of working solution at a concentration of 1 μM for later use. Ligand gradient dilutions were made for a total of 16 concentrations, and 10 μL of 10% DMSO-Buffer was added to each of the 15 gradients except gradient 1, followed by the addition of 10 μL of ligand working solution to gradients 1 and 2, respectively. The liquid in tube 2 was mixed and then 10 μL therein was taken into tube 3, and dilution was carried out in this manner until tube 16. Tube 16 was mixed and 10 μL therein was taken and discarded, and the remainder was kept for later use.
Detection and analysis: 10 μL of protein solution was added to the 16 compound gradient dilutions respectively and mixed, and the resultant mixtures were transferred to capillary tubes sequentially to start detection on machine. After loading the data, the MST analysis model and Kd Model were selected to obtain the fitting curve and dissociation constant (Kd).
The binding ability of the compounds of the present invention (as exemplified by the compounds 1-1 and 2-1 obtained in Examples 1 and 3) for other TRPC proteins (e.g., TRPC1, TRPC3, TRPC4, TRPC5, and TRPC7) was determined using the microscale thermophoresis (MST) method. The method was as follows:
The affinity of the compounds of the present invention with TRPC1, TRPC3, TRPC4, TRPC5 and TRPC7 proteins, respectively, was determined by the same method as in Example 5.

SMILES: Cn1c(C(=O)NCCC(=O)O)cc2ccccc21 [3-[(1-methyl-1H-indole-2-carbonyl)amino]propionic acid, reference compound]
- affinity strength to TRPC6 protein higher than to TRPC3 protein: 27 fold

SMILES: CC(=O)OCCCNC(=O)c1c(C=O)c2ccccc2n1C [compound 1-1, propyl 3-[(3-formyl-1-methyl-1H-indole-2-carbonyl)amino]acetate]
- affinity strength to TRPC6 protein higher than to TRPC3 protein: 81 fold

SMILES: Cn1c(C(=O)NCCCOC(=O)c2ccccc2)c(C=O)c2ccccc21 [compound 2-1]
- Kd (MST): 1400 nM
- affinity strength to TRPC6 protein higher than to TRPC3 protein: 51 fold
